Key:
barnyard grass [1] = experiment: Test Example 3: herbicidal effect by foliage application, Wagner pot (Table 18, symbol H); assay type: in vivo, barnyard grass (Echinochloa crus-galli); settings: amount of applied herbicide 320 g/ha
Outline: (§1)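 Plants were sown in alluvial soil held under 0.1–0.5 cm standing water and grown 14 days in a greenhouse at 25–30 °C. An emulsifiable formulation, water-diluted to the set dose, was then sprayed onto the foliage, and effects were scored three weeks later using previously defined criteria.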

Chinese sprangletop = experiment: Test Example 3: herbicidal effect by foliage application, Wagner pot (Table 18, symbol D); assay type: in vivo, chinese sprangletop (Leptochloa chinensis); settings: amount of applied herbicide 320 g/ha
Outline: as §1

rice flat sedge = experiment: Test Example 3: herbicidal effect by foliage application, Wagner pot (Table 18, symbol E); assay type: in vivo, rice flat sedge (Cyperus iria); settings: amount of applied herbicide 320 g/ha
Outline: as §1

southern crabgrass [2] = experiment: Test Example 4: herbicidal effect by soil treatment (Table 19, symbol F); assay type: in vivo, southern crabgrass (Digitaria ciliaris); settings: amount of applied herbicide 320 g/ha
Outline: (§2)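 In this soil treatment, the formulated compound reached the seeds only through the soil: seeds were buried about 1.5 cm deep in sterilized diluvial soil, then the diluted emulsion was sprayed over the surface. After three weeks at 25° C. to 30° C. in a greenhouse, effects were graded on criteria from an earlier test.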

green foxtail [3] = experiment: Test Example 4: herbicidal effect by soil treatment (Table 19, symbol G); assay type: in vivo, green foxtail (Setaria viridis); settings: amount of applied herbicide 320 g/ha
Outline: as §2

barnyard grass [4] = experiment: Test Example 4: herbicidal effect by soil treatment (Table 19, symbol H); assay type: in vivo, barnyard grass (Echinochloa crus-galli); settings: amount of applied herbicide 320 g/ha
Outline: as §2

wild oat [5] = experiment: Test Example 4: herbicidal effect by soil treatment (Table 19, symbol I); assay type: in vivo, wild oat (Avena fatua); settings: amount of applied herbicide 320 g/ha
Outline: as §2

blackgrass [6] = experiment: Test Example 4: herbicidal effect by soil treatment (Table 19, symbol J); assay type: in vivo, blackgrass (Alopecurus myosuroides); settings: amount of applied herbicide 320 g/ha
Outline: as §2

Italian ryegrass [7] = experiment: Test Example 4: herbicidal effect by soil treatment (Table 19, symbol K); assay type: in vivo, Italian ryegrass (Lolium multiflorum); settings: amount of applied herbicide 320 g/ha
Outline: as §2

windgrass [8] = experiment: Test Example 4: herbicidal effect by soil treatment (Table 19, symbol L); assay type: in vivo, windgrass (Apera spica-venti); settings: amount of applied herbicide 320 g/ha
Outline: as §2

velvetleaf [9] = experiment: Test Example 4: herbicidal effect by soil treatment (Table 19, symbol M); assay type: in vivo, velvetleaf (Abutilon theophrasti); settings: amount of applied herbicide 320 g/ha
Outline: as §2

redroot pigweed [10] = experiment: Test Example 4: herbicidal effect by soil treatment (Table 19, symbol N); assay type: in vivo, redroot pigweed (Amaranthus retroflexus); settings: amount of applied herbicide 320 g/ha
Outline: as §2

lambsquarters [11] = experiment: Test Example 4: herbicidal effect by soil treatment (Table 19, symbol O); assay type: in vivo, lambsquarters (Chenopodium album); settings: amount of applied herbicide 320 g/ha
Outline: as §2

chickweed [12] = experiment: Test Example 4: herbicidal effect by soil treatment (Table 19, symbol P); assay type: in vivo, common chickweed (Stellaria media); settings: amount of applied herbicide 320 g/ha
Outline: as §2

persian speedwell [13] = experiment: Test Example 4: herbicidal effect by soil treatment (Table 19, symbol R); assay type: in vivo, Persian speedwell (Veronica persica); settings: amount of applied herbicide 320 g/ha
Outline: as §2

southern crabgrass [14] = experiment: Test Example 5: herbicidal effect by foliage application, plastic box (Table 20, symbol F); assay type: in vivo, southern crabgrass (Digitaria ciliaris); settings: foliage application, evaluated three weeks after application
Outline: (§3)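 Plants were sown into sterilized diluvial soil under about 1.5 cm cover and kept in a greenhouse at 25° C. to 30° C. Fourteen days on, foliage received an even spray of the diluted emulsion. Herbicidal or crop effect was judged three weeks afterwards.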

green foxtail [15] = experiment: Test Example 5: herbicidal effect by foliage application, plastic box (Table 20, symbol G); assay type: in vivo, green foxtail (Setaria viridis); settings: foliage application, evaluated three weeks after application
Outline: as §3

barnyard grass [16] = experiment: Test Example 5: herbicidal effect by foliage application, plastic box (Table 20, symbol H); assay type: in vivo, barnyard grass (Echinochloa crus-galli); settings: foliage application, evaluated three weeks after application
Outline: as §3

wild oat [17] = experiment: Test Example 5: herbicidal effect by foliage application, plastic box (Table 20, symbol I); assay type: in vivo, wild oat (Avena fatua); settings: foliage application, evaluated three weeks after application
Outline: as §3

blackgrass [18] = experiment: Test Example 5: herbicidal effect by foliage application, plastic box (Table 20, symbol J); assay type: in vivo, blackgrass (Alopecurus myosuroides); settings: foliage application, evaluated three weeks after application
Outline: as §3

Italian ryegrass [19] = experiment: Test Example 5: herbicidal effect by foliage application, plastic box (Table 20, symbol K); assay type: in vivo, Italian ryegrass (Lolium multiflorum); settings: foliage application, evaluated three weeks after application
Outline: as §3

windgrass [20] = experiment: Test Example 5: herbicidal effect by foliage application, plastic box (Table 20, symbol L); assay type: in vivo, windgrass (Apera spica-venti); settings: foliage application, evaluated three weeks after application
Outline: as §3

velvetleaf [21] = experiment: Test Example 5: herbicidal effect by foliage application, plastic box (Table 20, symbol M); assay type: in vivo, velvetleaf (Abutilon theophrasti); settings: foliage application, evaluated three weeks after application
Outline: as §3

redroot pigweed [22] = experiment: Test Example 5: herbicidal effect by foliage application, plastic box (Table 20, symbol N); assay type: in vivo, redroot pigweed (Amaranthus retroflexus); settings: foliage application, evaluated three weeks after application
Outline: as §3

lambsquarters [23] = experiment: Test Example 5: herbicidal effect by foliage application, plastic box (Table 20, symbol O); assay type: in vivo, lambsquarters (Chenopodium album); settings: foliage application, evaluated three weeks after application
Outline: as §3

chickweed [24] = experiment: Test Example 5: herbicidal effect by foliage application, plastic box (Table 20, symbol P); assay type: in vivo, common chickweed (Stellaria media); settings: foliage application, evaluated three weeks after application
Outline: as §3

persian speedwell [25] = experiment: Test Example 5: herbicidal effect by foliage application, plastic box (Table 20, symbol R); assay type: in vivo, Persian speedwell (Veronica persica); settings: foliage application, evaluated three weeks after application
Outline: as §3

CSc1cccc(-c2sc3ccc(F)cc3c2-c2c(O)c(C)nn(C)c2=O)c1 [2-240]
herbicidal effect on H: barnyard grass (barnyard grass [1]): 4 (Herbicidal rate of 70% or more and less than 90%)
herbicidal effect on D: Chinese sprangletop (Chinese sprangletop): 3 (Herbicidal rate of 40% or more and less than 70%)
herbicidal effect on E: rice flat sedge (rice flat sedge): 4 (Herbicidal rate of 70% or more and less than 90%)
herbicidal effect on F: southern crabgrass (southern crabgrass [2]): 4 (Herbicidal rate of 70% or more and less than 90%)
herbicidal effect on G: green foxtail (green foxtail [3]): 5 (Herbicidal rate of 90% or more (almost completely withered))
herbicidal effect on H: barnyard grass (barnyard grass [4]): 2 (Herbicidal rate of 20% or more and less than 40%)
herbicidal effect on I: wild oat (wild oat [5]): 1 (Herbicidal rate of 5% or more and less than 20%)
herbicidal effect on J: blackgrass (blackgrass [6]): 0 (Herbicidal rate of 5% or less (almost no effect))
herbicidal effect on K: Italian ryegrass (Italian ryegrass [7]): 0 (Herbicidal rate of 5% or less (almost no effect))
herbicidal effect on L: windgrass (windgrass [8]): 0 (Herbicidal rate of 5% or less (almost no effect))
herbicidal effect on M: velvetleaf (velvetleaf [9]): 1 (Herbicidal rate of 5% or more and less than 20%)
herbicidal effect on N: redroot pigweed (redroot pigweed [10]): 4 (Herbicidal rate of 70% or more and less than 90%)
herbicidal effect on O: lambsquarters (lambsquarters [11]): 3 (Herbicidal rate of 40% or more and less than 70%)
herbicidal effect on P: chickweed (chickweed [12]): 1 (Herbicidal rate of 5% or more and less than 20%)
herbicidal effect on R: persian speedwell (persian speedwell [13]): 5 (Herbicidal rate of 90% or more (almost completely withered))
herbicidal effect on F: southern crabgrass (criteria 0-5) (southern crabgrass [14]; 320 g/ha): 5 (Herbicidal rate of 90% or more (almost completely withered))
herbicidal effect on G: green foxtail (criteria 0-5) (green foxtail [15]; 320 g/ha): 5 (Herbicidal rate of 90% or more (almost completely withered))
herbicidal effect on H: barnyard grass (criteria 0-5) (barnyard grass [16]; 320 g/ha): 3 (Herbicidal rate of 40% or more and less than 70%)
herbicidal effect on I: wild oat (criteria 0-5) (wild oat [17]; 320 g/ha): 5 (Herbicidal rate of 90% or more (almost completely withered))
herbicidal effect on J: blackgrass (criteria 0-5) (blackgrass [18]; 320 g/ha): 3 (Herbicidal rate of 40% or more and less than 70%)
herbicidal effect on K: Italian ryegrass (criteria 0-5) (Italian ryegrass [19]; 320 g/ha): 3 (Herbicidal rate of 40% or more and less than 70%)
herbicidal effect on L: windgrass (criteria 0-5) (windgrass [20]; 320 g/ha): 4 (Herbicidal rate of 70% or more and less than 90%)
herbicidal effect on M: velvetleaf (criteria 0-5) (velvetleaf [21]; 320 g/ha): 4 (Herbicidal rate of 70% or more and less than 90%)
herbicidal effect on N: redroot pigweed (criteria 0-5) (redroot pigweed [22]; 320 g/ha): 5 (Herbicidal rate of 90% or more (almost completely withered))
herbicidal effect on O: lambsquarters (criteria 0-5) (lambsquarters [23]; 320 g/ha): 5 (Herbicidal rate of 90% or more (almost completely withered))
herbicidal effect on P: chickweed (criteria 0-5) (chickweed [24]; 320 g/ha): 5 (Herbicidal rate of 90% or more (almost completely withered))
herbicidal effect on R: persian speedwell (criteria 0-5) (persian speedwell [25]; 320 g/ha): 5 (Herbicidal rate of 90% or more (almost completely withered))

Cc1nn(C)c(=O)c(-c2c(-c3ccc(OC(F)F)cc3)sc3ccc(F)cc23)c1OC(=O)N(C)C [2-291]
herbicidal effect on H: barnyard grass (barnyard grass [1]): 4 (Herbicidal rate of 70% or more and less than 90%)
herbicidal effect on D: Chinese sprangletop (Chinese sprangletop): 3 (Herbicidal rate of 40% or more and less than 70%)
herbicidal effect on E: rice flat sedge (rice flat sedge): 2 (Herbicidal rate of 20% or more and less than 40%)
herbicidal effect on F: southern crabgrass (southern crabgrass [2]): 0 (Herbicidal rate of 5% or less (almost no effect))
herbicidal effect on G: green foxtail (green foxtail [3]): 0 (Herbicidal rate of 5% or less (almost no effect))
herbicidal effect on H: barnyard grass (barnyard grass [4]): 0 (Herbicidal rate of 5% or less (almost no effect))
herbicidal effect on I: wild oat (wild oat [5]): 0 (Herbicidal rate of 5% or less (almost no effect))
herbicidal effect on J: blackgrass (blackgrass [6]): 0 (Herbicidal rate of 5% or less (almost no effect))
herbicidal effect on K: Italian ryegrass (Italian ryegrass [7]): 0 (Herbicidal rate of 5% or less (almost no effect))
herbicidal effect on L: windgrass (windgrass [8]): 0 (Herbicidal rate of 5% or less (almost no effect))
herbicidal effect on M: velvetleaf (velvetleaf [9]): 0 (Herbicidal rate of 5% or less (almost no effect))
herbicidal effect on N: redroot pigweed (redroot pigweed [10]): 3 (Herbicidal rate of 40% or more and less than 70%)
herbicidal effect on O: lambsquarters (lambsquarters [11]): 3 (Herbicidal rate of 40% or more and less than 70%)
herbicidal effect on P: chickweed (chickweed [12]): 4 (Herbicidal rate of 70% or more and less than 90%)
herbicidal effect on R: persian speedwell (persian speedwell [13]): 3 (Herbicidal rate of 40% or more and less than 70%)
F: southern crabgrass, herbicidal effect (criteria 0-5) (southern crabgrass [14]; AAH 320 g/ha): 0 (Herbicidal rate of 5% or less (almost no effect))
G: green foxtail, herbicidal effect (criteria 0-5) (green foxtail [15]; AAH 320 g/ha): 4 (Herbicidal rate of 70% or more and less than 90%)
H: barnyard grass, herbicidal effect (criteria 0-5) (barnyard grass [16]; AAH 320 g/ha): 0 (Herbicidal rate of 5% or less (almost no effect))
I: wild oat, herbicidal effect (criteria 0-5) (wild oat [17]; AAH 320 g/ha): 0 (Herbicidal rate of 5% or less (almost no effect))
J: blackgrass, herbicidal effect (criteria 0-5) (blackgrass [18]; AAH 320 g/ha): 3 (Herbicidal rate of 40% or more and less than 70%)
K: Italian ryegrass, herbicidal effect (criteria 0-5) (Italian ryegrass [19]; AAH 320 g/ha): 3 (Herbicidal rate of 40% or more and less than 70%)
L: windgrass, herbicidal effect (criteria 0-5) (windgrass [20]; AAH 320 g/ha): 0 (Herbicidal rate of 5% or less (almost no effect))
M: velvetleaf, herbicidal effect (criteria 0-5) (velvetleaf [21]; AAH 320 g/ha): 2 (Herbicidal rate of 20% or more and less than 40%)
N: redroot pigweed, herbicidal effect (criteria 0-5) (redroot pigweed [22]; AAH 320 g/ha): 5 (Herbicidal rate of 90% or more (almost completely withered))
O: lambsquarters, herbicidal effect (criteria 0-5) (lambsquarters [23]; AAH 320 g/ha): 5 (Herbicidal rate of 90% or more (almost completely withered))
P: chickweed, herbicidal effect (criteria 0-5) (chickweed [24]; AAH 320 g/ha): 5 (Herbicidal rate of 90% or more (almost completely withered))
R: persian speedwell, herbicidal effect (criteria 0-5) (persian speedwell [25]; AAH 320 g/ha): 5 (Herbicidal rate of 90% or more (almost completely withered))
